In patent EP1920756A1, “Cosmetic matrix for a preservative-free cosmetic formulation” (SYRIO PHARMA S.P.A., priority 2006, dated 2008):
Values joined by “and” are separate entries in the source; they are usually repeats but may differ in a detail not shown here. Equal entries are not always repeated. Where two headings read alike, the source gives them in different places.

Legend:
[1] = system: CD80 (B7.1); details: for CD80 (MFI*): THP-1, 48 hours, corrected by the negative control
Procedure: (§1) The test consisted in evaluating the pro-sensitising stimulus on human monocytes. It was deemed appropriate to use a cell model to evaluate the immunological reactivity of typical immunological cells (monocytes in this case) exposed for a prolonged time (48h) to the tested product in two different concentrations
(§2) The test was thus performed on a monocytes cell line named THP-1, as such a cell type is highly involved in the immunological responses of skin, which is the target organ of the tested cream. […] Nickel is in fact able to trigger in vivo allergising-type immunological reactions (contact sensitising).
(§3) The technique is based on the fact that the recognition of the antigen by the TCR (T Cell Receptor) of T lymphocytes (signal 1) is not functional to the maturation of an effective immune response, if it doesn't occur at the membrane of an antigen-presenting cell able to provide an additional signal (signal 2 or costimulus) qualitatively necessary for the definition of the response type (humoral, cellular, etc). Both B7.1 and B7.2 (collectively: B7) are membrane glycoproteins which are present on the surface of several antigen-presenting cells (dendritic cells, Langerhans cells, monocytes/macrophages, other cell lines such as keratinocytes) and serve as costimula. In fact, both these molecules are ligands of a glycoprotein named CD28, which are present on the T lymphocyte membrane. The triggering of the ligand/receptor system CD28B7 avoids the T cell apoptosis (i.e. the programmed cell death) and cooperates to sustain their proliferation and differentiation. In the first steps of the "physiological" immune response, B7.2 is expressed constitutively and modulates both the Th1 and Th2 responses.
(§4) An increase in expression of these co-stimulatory molecules on monocytes is thus a signal of activation of an immune response the exposure in consequence of a potentially allergising antigen. Functionally, in fact, the expression of co-stimulatory molecules on this cell type corresponds to the competence acquisition for expressing the antigen in the typical location (skin in this case) in which a contact sensitization occurs in vivo.
(§5) They were subjected to a preliminary cytotoxicity screening on THP-1 cells to determinate the concentration at which the substance could be used in vitro without causing cell death, event which causes false results.
(§6) Cell growth culture medium exposed to the same experimental conditions was used as a negative control. […]
(§7) After exposure, the cells were examined for their viability by staining with Trypan Blue dye and by observing under microscope in a corpuscle-counter chamber, collected, washed in a isotonic buffer (PBS) and then marked with a fluoresceinated anti-B7.1 or B7.2 antibody. After further washings to remove the excess antibody, the cells were feeded in a flux cytofluorimeter (FACS, Fluorescence Activated Cell Sorter, Becton Dickinson, Mountain View, CA) for the MFI (Mean Fluorescence Intensity) evaluation, which was proportional to the number of molecules marked per cell and therefore representative of the expression level of the tested co-stimulatory molecules.
(§8) As control (basal fluorescence), the MFI of both untreated THP-1 cells (apart from washings in PBS) and THP-1 cells reacted with a fluoresceinated monoclonal antibody (such as the anti-B7.1 and anti-B7.2), but of irrelevant specificity (isotype-matched control) was evaluated.

[2] = system: CD86 (B7.2); details: THP-1, 48 hours, corrected by the negative control
Procedure: as §1, §2, §3, §4, §5, §6, §7, §8

[3] = in contact with healthy and intact skin; cited from earlier work
[4] = system: stabilized human keratinocytes (HaCaT cells); experiment: Cytotoxicity evaluation with MTT method (UNI EN ISO 10993-5 rule); assay type: cell-based
Procedure: The test consisted in evaluating the cytotoxicity of the moisturizing cream […] aimed to be used on skin or on mucosae following the UNI EN ISO 10993-5 rule concerning the biological evaluation of medical devices. The cytotoxicity test was carried out towards the keratinocyte, the main cell component of skin and mucosae. […] The method is based on the fact that the mitochondrial dehydrogenases of viable cells are able to cleave the tetrazolium ring of MTT, leading to the formation of purple formazane crystals, which are insoluble in water. The crystals are dissolved in acidified isopropanol and the resulting purple solution is measured spectrophotometrically. An increase or decrease in viable cell number results in a concomitant change in the amount of formazan which is forming and can be considered as an indication of the degree of cytotoxicity caused by the exposure to the tested substances. The cell model employed for the in vitro test consisted of stabilized human keratinocytes (HaCaT cells). Cells were cultured in 24-well plates for 24 hours in DMEM + 10% FCS. Fresh culture medium was then added, supplemented with 10% FCS and containing a sample of the product to be tested so as to reach 6 final dilutions ranging from 5 to 0.15 mg/ml. For each sample of the cream […], three replica were performed. Untreated cells were used as negative control, and as positive control cells were treated with a surfactant with known toxicity, i.e. Sodium Lauryl Sulphate briefly referred to as SLS, dissolved in the culture medium in concentrations ranging from 0.5 mg/ml to 0.03 mg/ml. Specifically, samples with SLS amounts equal to 0.5, 0.25, 0.12, 0.06 and 0.03 mg/ml and […] amounts of 5, 2.5, 1.25, 0.6, 0.3, 0.15 mg/ml were prepared. At the end of treatment, the citotoxicity test (MTT) was carried out. The cells were then washed with washing solution (Dulbecco's Phosphate Buffered Saline). After removal of the solution, the MTT-culture medium was added to each well and the cells were incubated at 37°C. At the end of the incubation period, the MTT-culture medium was removed and a MTT solubilizing solution was added to each well. The plate was then stirred on a plate stirrer, while ensuring that all the crystals were dissolved and had formed a homogeneous solution. The absorbance was then read with a chromatometer equipped with a plate reader, by subtracting background reading. The result was expressed as: % cell survival = (OD treated cells × 100)/(OD untreated cells) [formula] […]

| Compound | increase in CD80, with respect to untreated controls ([1]; 4 µg/ml, data not shown) | CD80 (MFI*) ([1]; 10 µg/ml) | CD80 (MFI*) ([1]; 20 µg/ml) | CD86 (MFI*) ([2]; 10 µg/ml) | CD86 (MFI*) ([2]; 20 µg/ml) | concentration able to cause an allergic reaction in most of the sensitive subjects [3] | Cell viability % (vs negative control) ([4]; Dose 0.03 mg/ml, MTT, Sulphate) | Cell viability % (vs negative control) ([4]; Dose 0.06 mg/ml, MTT, Sulphate) | Cell viability % (vs negative control) ([4]; Dose 0.12 mg/ml, MTT, Sulphate) | Cell viability % (vs negative control) ([4]; Dose 0.25 mg/ml, MTT, Sulphate) | Cell viability % (vs negative control) ([4]; Dose 0.5 mg/ml, MTT, Sulphate) | IC50 ([4]; Homo sapiens, read-out: concentration of 50% inhibition of cell growth (IC50), HaCaT, MTT, theoretical value from regression curve of dose-response) | concentration of 50% inhibition of cell growth (IC50) ([4]; MTT, theoretical value from regression curve of dose-response, Sulphate) |
| --- | --- | --- | --- | --- | --- | --- | --- | --- | --- | --- | --- | --- | --- |
| O.O.O.O.O.O.O=S(=O)([O-])[O-].[Ni+2] [Nickel sulphate, Nickel Sulphate (NiSO46H2O)] | detectable increase | 19.85 and 18.33 | 29.00 and 33.48 | 37.35 and 33.26 | 77.12 and 87.92 | above 100 ppm | – | – | – | – | – | – | – |
| CCCCCCCCCCCCOS(=O)(=O)[O-].[Na+] [SLS, Sodium Lauryl Sulphate] | – | – | – | – | – | – | 87.6% and 94.7% and 98.5% and 92.7% | 61.0% and 79.6% and 76.7% and 73.9% | 2.5% and 3.9% and 0.2% and 1.9% | 2.3% and 2.9% and 0.1% and 1.5% | 2.3% and 2.2% and 0.2% and 1.2% | 60 µg/mL | 70 µg/mL and 67 µg/mL |
